Source: PubChem BioAssay (NCI)
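These data come from cells grown in 96-well plates and exposed to compound for 48 hours at five concentrations. GI50 marks 50% less growth. TGI: concentration producing complete growth inhibition.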

Legend:
Assay in all cases: NCI-60 cell line screen, 48 h
DU-145 prostate = tested on: DU-145 prostate
UACC-257 melanoma = tested on: UACC-257 melanoma
LOX IMVI melanoma = tested on: LOX IMVI melanoma
OVCAR-4 ovarian = tested on: OVCAR-4 ovarian
NCI-H226 lung = tested on: NCI-H226 lung
CAKI-1 renal = tested on: CAKI-1 renal
MCF7 breast = tested on: MCF7 breast
A498 renal = tested on: A498 renal
SNB-75 CNS = tested on: SNB-75 CNS
U251 CNS = tested on: U251 CNS
HOP-92 NSCLC = tested on: HOP-92 NSCLC
EKVX NSCLC = tested on: EKVX NSCLC
OVCAR-5 ovarian = tested on: OVCAR-5 ovarian
SN12C renal = tested on: SN12C renal
HS 578T breast = tested on: HS 578T breast
HT29 colon = tested on: HT29 colon
SK-MEL-5 melanoma = tested on: SK-MEL-5 melanoma
IGROV1 ovarian = tested on: IGROV1 ovarian
SK-MEL-28 melanoma = tested on: SK-MEL-28 melanoma
NCI/ADR-RES ovarian = tested on: NCI/ADR-RES ovarian
SF-268 CNS = tested on: SF-268 CNS
UO-31 renal = tested on: UO-31 renal
SF-295 CNS = tested on: SF-295 CNS
UACC-62 melanoma = tested on: UACC-62 melanoma
RPMI-8226 leukemia = tested on: RPMI-8226 leukemia
OVCAR-3 ovarian = tested on: OVCAR-3 ovarian
HCT-15 colon = tested on: HCT-15 colon
SF-539 CNS = tested on: SF-539 CNS
COLO 205 colon = tested on: COLO 205 colon
KM12 colon = tested on: KM12 colon
NCI-H460 lung = tested on: NCI-H460 lung
NCI-H23 lung = tested on: NCI-H23 lung
RXF 393 renal = tested on: RXF 393 renal
786-0 renal = tested on: 786-0 renal
SK-MEL-2 melanoma = tested on: SK-MEL-2 melanoma
MDA-MB-231 breast = tested on: MDA-MB-231 breast
OVCAR-8 ovarian = tested on: OVCAR-8 ovarian
TK-10 renal = tested on: TK-10 renal
A549 NSCLC = tested on: A549 NSCLC
HCT-116 colon = tested on: HCT-116 colon
ACHN renal = tested on: ACHN renal
SNB-19 CNS = tested on: SNB-19 CNS
MALME-3M melanoma = tested on: MALME-3M melanoma
SK-OV-3 ovarian = tested on: SK-OV-3 ovarian
M14 melanoma = tested on: M14 melanoma
BT-549 breast = tested on: BT-549 breast
PC-3 prostate = tested on: PC-3 prostate
SR leukemia = tested on: SR leukemia
HCC-2998 colon = tested on: HCC-2998 colon
HOP-62 NSCLC = tested on: HOP-62 NSCLC

## O=C(Nc1cc(-c2ccccc2)[nH]n1)c1ccc(Cl)cc1
DU-145 prostate
  GI50: 6.96 µM
  TGI: > 100 µM
UACC-257 melanoma
  GI50: > 100 µM
  TGI: > 100 µM
LOX IMVI melanoma
  GI50: 9.23 µM
  TGI: > 100 µM
OVCAR-4 ovarian
  GI50: > 100 µM
  TGI: > 100 µM
NCI-H226 lung
  GI50: 56.7 µM
  TGI: > 100 µM
CAKI-1 renal
  GI50: 2.66 µM
  TGI: > 100 µM
MCF7 breast
  GI50: > 100 µM
  TGI: > 100 µM
A498 renal
  GI50: 1.27 µM
  TGI: > 100 µM
SNB-75 CNS
  GI50: 17.7 µM
  TGI: 90.3 µM
U251 CNS
  GI50: 9.42 µM
  TGI: > 100 µM
HOP-92 NSCLC
  GI50: 37.1 µM
  TGI: > 100 µM
EKVX NSCLC
  GI50: > 100 µM
  TGI: > 100 µM
OVCAR-5 ovarian
  GI50: > 100 µM
  TGI: > 100 µM
SN12C renal
  GI50: > 100 µM
  TGI: > 100 µM
HS 578T breast
  GI50: 3.96 µM
  TGI: 65.9 µM
HT29 colon
  GI50: 6.67 µM
  TGI: > 100 µM
SK-MEL-5 melanoma
  GI50: > 100 µM
  TGI: > 100 µM
IGROV1 ovarian
  GI50: 3.04 µM
  TGI: > 100 µM
SK-MEL-28 melanoma
  GI50: > 100 µM
  TGI: > 100 µM
NCI/ADR-RES ovarian
  GI50: > 100 µM
  TGI: > 100 µM
SF-268 CNS
  GI50: 28.6 µM
  TGI: > 100 µM
UO-31 renal
  GI50: 7.32 µM
  TGI: > 100 µM
SF-295 CNS
  GI50: 1.91 µM
  TGI: > 100 µM
UACC-62 melanoma
  GI50: > 100 µM
  TGI: > 100 µM
RPMI-8226 leukemia
  GI50: > 100 µM
  TGI: > 100 µM
OVCAR-3 ovarian
  GI50: > 100 µM
  TGI: > 100 µM
HCT-15 colon
  GI50: 4.14 µM
  TGI: > 100 µM
SF-539 CNS
  GI50: 17.9 µM
  TGI: > 100 µM
COLO 205 colon
  GI50: > 100 µM
  TGI: > 100 µM
KM12 colon
  GI50: 3.28 µM
  TGI: > 100 µM
NCI-H460 lung
  GI50: 3.58 µM
  TGI: > 100 µM
NCI-H23 lung
  GI50: > 100 µM
  TGI: > 100 µM
RXF 393 renal
  GI50: 7.16 µM
  TGI: > 100 µM
786-0 renal
  GI50: 72.4 µM
  TGI: > 100 µM
SK-MEL-2 melanoma
  GI50: 6.97 µM
  TGI: > 100 µM
MDA-MB-231 breast
  GI50: 30.4 µM
  TGI: > 100 µM
OVCAR-8 ovarian
  GI50: 24.2 µM
  TGI: > 100 µM
TK-10 renal
  GI50: 9.22 µM
  TGI: > 100 µM
A549 NSCLC
  GI50: 30.4 µM
  TGI: > 100 µM
HCT-116 colon
  GI50: 9.22 µM
  TGI: > 100 µM
ACHN renal
  GI50: 5.27 µM
  TGI: > 100 µM
SNB-19 CNS
  GI50: 74.2 µM
  TGI: > 100 µM
MALME-3M melanoma
  GI50: 12.1 µM
  TGI: > 100 µM
SK-OV-3 ovarian
  GI50: 3.67 µM
  TGI: > 100 µM
M14 melanoma
  GI50: 8.66 µM
  TGI: > 100 µM
BT-549 breast
  GI50: > 100 µM
  TGI: > 100 µM
PC-3 prostate
  GI50: 37.4 µM
  TGI: > 100 µM
SR leukemia
  GI50: 5.65 µM
  TGI: > 100 µM
HCC-2998 colon
  GI50: > 100 µM
  TGI: > 100 µM
HOP-62 NSCLC
  GI50: 20.7 µM
  TGI: > 100 µM
